# Read-outs that look alike come from different tables or passages of the source.
# Key:
# Format in all cases: in vivo
# Amaranthus retroflexus = assay: Greenhouse post-emergence herbicidal activity, AMARE; conditions: for pest or weed control at 31 g/ha: 0.031 kg/ha; for pest or weed control at 63 g/ha: 0.063 kg/ha; for pest or weed control at 125 g/ha: 0.125 kg/ha; for pest or weed control at 1000 g/ha: 1 kg/ha
# In short: (§1)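 Post-emergence spray, water suspension/emulsion, on 3-15 cm plants in loamy sand with ~3.0% humus. 10-25° C. or 20-35° C. per species; 2-4 wk. Visual score 0-100, 100 = complete kill.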
# Cirsium arvense = assay: Greenhouse post-emergence herbicidal activity, CIRAR; conditions: for pest or weed control at 31 g/ha: 0.031 kg/ha
# Description: (§2) The culture containers used were plastic flowerpots containing loamy sand with approximately 3.0% of humus as the substrate. The seeds of the test plants were sown separately for each species.
# (§3) For the post-emergence treatment, the test plants were first grown to a height of 3 to 15 cm, depending on the plant habit, and only then treated with the active ingredients which had been suspended or emulsified in water. For this purpose, the test plants were either sown directly and grown in the same containers, or they were first grown separately as seedlings and transplanted into the test containers a few days prior to treatment.
# (§4) Depending on the species, the plants were kept at 10-25° C. or 20-35° C., respectively.
# (§5) The test period extended over 2 to 4 weeks. During this time, the plants were tended, and their response to the individual treatments was evaluated.
# (§6) Evaluation was carried out using a scale from 0 to 100. 100 means no emergence of the plants, or complete destruction of at least the aerial moieties, and 0 means no damage, or normal course of growth. A good herbicidal activity is given at values of at least 70 and a very good herbicidal activity is given at values of at least 85.
# Stellaria media = assay: Greenhouse post-emergence herbicidal activity, STEME; conditions: scale 0 to 100
# Description: as §2, §3, §4, §5, §6
# Kochia scoparia = assay: Greenhouse post-emergence herbicidal activity, KCHSC; conditions: scale 0 to 100
# Description: as §2, §3, §4, §5, §6
# Abutilon theophrasti = assay: Greenhouse post-emergence herbicidal activity, ABUTH; conditions: for pest or weed control at 1000 g/ha: 1 kg/ha
# Description: as §2, §3, §4, §5, §6
# Capsella bursa-pastoris = assay: Greenhouse post-emergence herbicidal activity, CAPBP; conditions: scale 0 to 100
# Description: as §2, §3, §4, §5, §6
# Polygonum persicaria = assay: Greenhouse post-emergence herbicidal activity, POLPE; conditions: 0.031 kg/ha, scale 0 to 100
# Description: as §2, §3, §4, §5, §6
# Brachiaria decumbens = assay: Greenhouse post-emergence herbicidal activity, BRADC; conditions: 0.125 kg/ha, scale 0 to 100
# Description: as §2, §3, §4, §5, §6
# Zea mays = assay: Greenhouse post-emergence herbicidal activity on crop ZEAMX (corn, maize); parameters: key: 0 = no damage/normal growth, 100 = no emergence or complete destruction; conditions: ZEAMX (corn, crop), scale 0 to 100
# In short: as §1
# Echinocloa crus-galli = assay: Greenhouse post-emergence herbicidal activity, ECHCG; conditions: Echinochloa crus-galli; for pest or weed control at 125 g/ha: 0.125 kg/ha; for pest or weed control at 1000 g/ha: 1 kg/ha
# In short: as §1
# Brachiaria deflexa = assay: Greenhouse post-emergence herbicidal activity, BRADE; conditions: 0.031 kg/ha, scale 0 to 100
# Description: as §2, §3, §4, §5, §6
# Setaria viridis = assay: Greenhouse post-emergence herbicidal activity, SETVI; conditions: 2 kg/ha, scale 0 to 100
# Description: as §2, §3, §4, §5, §6
# Chenopodium album = assay: Greenhouse post-emergence herbicidal activity, CHEAL; conditions: scale 0 to 100; for pest or weed control at 31 g/ha: 0.031 kg/ha; for pest or weed control at 63 g/ha: 0.063 kg/ha; for pest or weed control at 125 g/ha: 0.125 kg/ha
# In short: as §1
# Eriochloa villosa = assay: Greenhouse post-emergence herbicidal activity, ERBVI; conditions: scale 0 to 100
# Description: as §2, §3, §4, §5, §6
# Oryza sativa = assay: Greenhouse post-emergence herbicidal activity on crop ORYSA (rice); conditions: ORYSA (rice, crop), scale 0 to 100
# In short: as §1
# Commelina benghalensis = assay: Greenhouse post-emergence herbicidal activity, COMBE; conditions: 0.125 kg/ha, scale 0 to 100
# Description: as §2, §3, §4, §5, §6
# Veronica arvensis = assay: Greenhouse post-emergence herbicidal activity, VERAR; conditions: scale 0 to 100
# Description: as §2, §3, §4, §5, §6
# Ambrosia artemisiifolia = assay: Greenhouse post-emergence herbicidal activity, AMBEL; conditions: scale 0 to 100
# Description: as §2, §3, §4, §5, §6
# Ipomoea hederacea = assay: Greenhouse post-emergence herbicidal activity, IPOHE; conditions: scale 0 to 100
# Description: as §2, §3, §4, §5, §6
# Sesbania herbacea = assay: Greenhouse post-emergence herbicidal activity, SEBEX; conditions: 0.125 kg/ha, scale 0 to 100
# Description: as §2, §3, §4, §5, §6
# Setaria faberi = assay: Greenhouse post-emergence herbicidal activity, SETFA; conditions: scale 0 to 100
# Description: as §2, §3, §4, §5, §6
# Polygonum aviculare = assay: Greenhouse post-emergence herbicidal activity, POLAV; conditions: 0.25 kg/ha, scale 0 to 100
# Description: as §2, §3, §4, §5, §6
# Brachiaria plantaginea = assay: Greenhouse post-emergence herbicidal activity, BRAPL; conditions: scale 0 to 100
# Description: as §2, §3, §4, §5, §6
# Panicum miliaceum = assay: Greenhouse post-emergence herbicidal activity, PANMI; conditions: 0.031 kg/ha, scale 0 to 100
# Description: as §2, §3, §4, §5, §6
# [1] = ABUTH, 2 kg/ha, scale 0 to 100, read-out: Herbicidal activity
# [2] = ECHCG, 2 kg/ha, scale 0 to 100, read-out: Herbicidal activity
# [3] = AMARE, 2 kg/ha, scale 0 to 100, read-out: Herbicidal activity
# [4] = CIRAR, 0.063 kg/ha, scale 0 to 100, read-out: Herbicidal activity
Structure (SMILES),Herbicidal activity (Capsella bursa-pastoris; 0.125 kg/ha),Herbicidal activity (Zea mays; 0.063 kg/ha),"pest or weed control at 31 g/ha (Amaranthus retroflexus; AMARE, scale 0 to 100) [%]","pest or weed control at 63 g/ha (Amaranthus retroflexus; AMARE, scale 0 to 100) [%]","pest or weed control at 125 g/ha (Amaranthus retroflexus; AMARE, scale 0 to 100) [%]",pest or weed control at 31 g/ha (Chenopodium album) [%],Herbicidal activity (Zea mays; 0.031 kg/ha),Herbicidal activity (Zea mays; 0.125 kg/ha),pest or weed control at 2000 g/ha (Echinocloa crus-galli; [2]) [%],"pest or weed control at 31 g/ha (Cirsium arvense; CIRAR, scale 0 to 100) [%]",pest or weed control at 63 g/ha (Cirsium arvense; [4]) [%],Herbicidal activity (Oryza sativa; 0.125 kg/ha),pest or weed control at 63 g/ha (Chenopodium album) [%],pest or weed control at 125 g/ha (Chenopodium album) [%],Herbicidal activity (Oryza sativa; 0.031 kg/ha),Herbicidal activity (Oryza sativa; 0.063 kg/ha),other results
"CN(c1c(Cl)ccc(C2=C(O)c3ncccc3C(C)(C)S2(=O)=O)c1Cl)S(C)(=O)=O [I-2, N-[2,6-dichloro-3-(8-hydroxy-5,5-dimethyl-6,6-dioxo-thiopyrano[4,3-b]pyridin-7-yl)phenyl]-N-methyl-methanesulfonamide]",100,5,–,–,–,–,–,–,–,–,–,–,–,–,–,–,pest or weed control at 2000 g/ha (Amaranthus retroflexus; read-out: Herbicidal activity): 100%; pest or weed control at 63 g/ha (Cirsium arvense; read-out: Herbicidal activity): 98%; Herbicidal activity (Stellaria media; 0.031 kg/ha): 100; Herbicidal activity (Stellaria media; 0.063 kg/ha): 100; Herbicidal activity (Kochia scoparia; 0.031 kg/ha): 95; Herbicidal activity (Kochia scoparia; 0.063 kg/ha): 98; Herbicidal activity (Kochia scoparia; 0.125 kg/ha): 100; pest or weed control at 2000 g/ha (Abutilon theophrasti; read-out: Herbicidal activity): 100%; Herbicidal activity (Polygonum persicaria): 98; Herbicidal activity (Brachiaria decumbens): 100; pest or weed control at 2000 g/ha (Echinocloa crus-galli; read-out: Herbicidal activity): 100%
"CCN(c1c(Cl)ccc(C2=C(O)c3ncccc3C(C)(C)S2(=O)=O)c1Cl)S(C)(=O)=O [I-9, N-[2,6-dichloro-3-(8-hydroxy-5,5-dimethyl-6,6-dioxo-thiopyrano[4,3-b]pyridin-7-yl)phenyl]-N-ethyl-methanesulfonamide]",–,10,98,98,98,98,5,50,100,–,–,–,–,–,–,–,"pest or weed control at 125 g/ha (Cirsium arvense; CIRAR, 0.125 kg/ha, scale 0 to 100): 100%; Herbicidal activity (Brachiaria deflexa): 100; Herbicidal activity (Setaria viridis): 100; Herbicidal activity (Kochia scoparia; 0.063 kg/ha): 100; Herbicidal activity (Eriochloa villosa; 0.063 kg/ha): 98; pest or weed control at 2000 g/ha (Abutilon theophrasti; [1]): 98%; pest or weed control at 125 g/ha (Echinocloa crus-galli; ECHCG, scale 0 to 100): 98%"
"CC(C)N(c1c(Cl)ccc(C2=C(O)c3ncccc3C(C)(C)S2(=O)=O)c1Cl)S(C)(=O)=O [I-11, N-[2,6-dichloro-3-(8-hydroxy-5,5-dimethyl-6,6-dioxo-thiopyrano[4,3-b]pyridin-7-yl)phenyl]-N-isopropyl-methanesulfonamide]",100,–,–,–,–,98,0,–,100,90,95,20,98,100,–,–,pest or weed control at 2000 g/ha (Amaranthus retroflexus; [3]): 100%; Herbicidal activity (Setaria viridis): 100; Herbicidal activity (Capsella bursa-pastoris; 0.031 kg/ha): 98; Herbicidal activity (Capsella bursa-pastoris; 0.063 kg/ha): 100; Herbicidal activity (Commelina benghalensis): 100
"CN(c1cccc(C2=C(OC(=O)C(C)(C)C)c3ncccc3C(C)(C)S2(=O)=O)c1Cl)S(C)(=O)=O [I-16, [7-[2-chloro-3-[methyl(methylsulfonyl)amino]phenyl]-5,5-dimethyl-6,6-dioxo-thiopyrano[4,3-b]pyridin-8-yl] 2,2-dimethylpropanoate]",–,0,75,–,90,95,0,0,–,–,85,0,98,98,0,0,Herbicidal activity (Veronica arvensis; 0.25 kg/ha): 100; Herbicidal activity (Oryza sativa; 0.25 kg/ha): 0; Herbicidal activity (Ambrosia artemisiifolia; 0.063 kg/ha): 100; Herbicidal activity (Ambrosia artemisiifolia; 0.125 kg/ha): 100; Herbicidal activity (Ambrosia artemisiifolia; 0.25 kg/ha): 100; pest or weed control at 250 g/ha (Chenopodium album; 0.25 kg/ha): 100%; Herbicidal activity (Ipomoea hederacea; 0.031 kg/ha): 70
CN(C)S(=O)(=O)Oc1c(Cl)ccc(C2=C(O)c3ncccc3C(C)(C)S2(=O)=O)c1Cl [I-23],–,0,–,70,–,85,0,15,–,75,80,0,95,98,0,0,"pest or weed control at 1000 g/ha (Amaranthus retroflexus; AMARE, scale 0 to 100): 100%; Herbicidal activity (Ipomoea hederacea; 0.125 kg/ha): 95; pest or weed control at 1000 g/ha (Abutilon theophrasti; ABUTH, scale 0 to 100): 80%; pest or weed control at 1000 g/ha (Echinocloa crus-galli; ECHCG, scale 0 to 100): 95%; Herbicidal activity (Sesbania herbacea): 98"
"CC1(C)c2cccnc2C(O)=C(c2ccc(Cl)c(N(C3CC3)S(C)(=O)=O)c2Cl)S1(=O)=O [I-25, N-cyclopropyl-N-[2,6-dichloro-3-(8-hydroxy-5,5-dimethyl-6,6-dioxo-thiopyrano[4,3-b]pyridin-7-yl)phenyl]methanesulfonamide]",95,–,95,98,98,–,5,20,–,95,–,–,95,–,–,35,"pest or weed control at 250 g/ha (Amaranthus retroflexus; AMARE, 0.25 kg/ha, scale 0 to 100): 98%; Herbicidal activity (Oryza sativa; 0.25 kg/ha): 35; Herbicidal activity (Setaria faberi; 0.031 kg/ha): 95; Herbicidal activity (Setaria faberi; 0.063 kg/ha): 95; Herbicidal activity (Setaria faberi; 0.125 kg/ha): 95; Herbicidal activity (Ambrosia artemisiifolia; 0.25 kg/ha): 100; Herbicidal activity (Polygonum aviculare): 100"
"Cc1c(C2=C(O)c3ncccc3CS2(=O)=O)ccc(Cl)c1N(C)S(C)(=O)=O [I-26, N-[6-chloro-3-(8-hydroxy-6,6-dioxo-5H-thiopyrano[4,3-b]pyridin-7-yl)-2-methyl-phenyl]-N-methyl-methanesulfonamide]",–,15,–,85,90,–,–,15,100,–,–,45,–,98,–,–,pest or weed control at 2000 g/ha (Amaranthus retroflexus; [3]): 100%; Herbicidal activity (Veronica arvensis; 0.031 kg/ha): 90; Herbicidal activity (Brachiaria plantaginea; 0.031 kg/ha): 90; Herbicidal activity (Brachiaria plantaginea; 0.063 kg/ha): 90; Herbicidal activity (Eriochloa villosa; 0.031 kg/ha): 90; Herbicidal activity (Eriochloa villosa; 0.063 kg/ha): 95; Herbicidal activity (Eriochloa villosa; 0.125 kg/ha): 95; pest or weed control at 2000 g/ha (Abutilon theophrasti; [1]): 100%
"CN(c1c(Cl)ccc(C2=C(O)c3ncccc3CS2(=O)=O)c1Cl)S(=O)(=O)C1CC1 [I-27, N-[2,6-dichloro-3-(8-hydroxy-6,6-dioxo-5H-thiopyrano[4,3-b]pyridin-7-yl)phenyl]-N-methyl-cyclopropanesulfonamide]",–,20,–,–,–,100,15,–,–,–,–,–,100,100,40,–,"pest or weed control at 1000 g/ha (Amaranthus retroflexus; AMARE, scale 0 to 100): 100%; Herbicidal activity (Ambrosia artemisiifolia; 0.031 kg/ha): 70; Herbicidal activity (Ambrosia artemisiifolia; 0.063 kg/ha): 75; Herbicidal activity (Panicum miliaceum): 75; pest or weed control at 125 g/ha (Abutilon theophrasti; ABUTH, 0.125 kg/ha, scale 0 to 100): 80%; pest or weed control at 1000 g/ha (Abutilon theophrasti; ABUTH, scale 0 to 100): 95%; pest or weed control at 63 g/ha (Echinocloa crus-galli; ECHCG, 0.063 kg/ha, scale 0 to 100): 98%; pest or weed control at 125 g/ha (Echinocloa crus-galli; ECHCG, scale 0 to 100): 98%; pest or weed control at 1000 g/ha (Echinocloa crus-galli; ECHCG, scale 0 to 100): 98%"

# Source: US10023590B2, “Substituted pyridine compounds having herbicidal activity” (BASF SE, priority 2014, dated 2018)
